Source: publication PMC4522657, “Identification of a DYRK1A Inhibitor that Induces Degradation of the Target Kinase using Co-chaperone CDC37 fused with Luciferase nanoKAZ” (Scientific Reports, 2015)

Tests used:
[1] = biological target: T1, interaction of CDC37-nanoKAZ with 3xFLAG-DYRK1A (Y319F/Y321F) (Homo sapiens, UniProt Q13627, Y319F/Y321F); test: CDC37-nanoKAZ binding assay (ELISA of the CDC37-nanoKAZ interaction) in 293T cells; assay type: cell-based; settings: for antagonism of the CDC37-nanoKAZ interaction: result in words, Fig. 6c; for EC50: 293T cells stably expressing CDC37-nanoKAZ, treated one hour, read-out: EC50, decrease of relative luminescence intensity
T1 construct: F2A peptide linking to EGFP (2A skipping releases EGFP; a 2A remnant may stay on DYRK1A) (C); expressed in transfected cells; host or cells: 293T cells stably expressing CDC37-nanoKAZ, transiently transfected with pcDNA5/FRT/TO 3xFLAG-DYRK1A (Y319F/Y321F)
Protocol: The cells were then treated with the indicated concentrations of small molecules for one hour. Cell lysates were added to FLAG antibody-coated 96-well plates and luminescence intensities were measured. The amount of bound 3xFLAG-DYRK1A was measured using a HRP-conjugated antibody against FLAG. The relative Imax for CDC37-nanoKAZ was normalized using the amount of bound protein.
Stable cell lines transfected with expression vectors for 3xFLAG-tagged DYRK family kinases and its mutants were lysed in ice-cold HENG buffer (50 mM HEPES-KOH, pH 7.9, 150 mM NaCl, 20 mM Na2MoO4, 2 mM EDTA, 5% Glycerol, 0.5% TritonX-100) containing protease inhibitor cocktail (Nacalai Tesque) on ice. […] The wells were wash three times with ice-cold HENG buffer and then a luminescence assay was performed.
(§1) The luminescence activity of the cell lysates was determined using a Centro LB 960 Microplate Luminometer (Berthold Technologies, Bad Wildbad, Germany). A reaction mixture containing bis-coelenterazine (final concentration of 0.1–1 μg/100 μL) in PBS containing 0.02% Tween20 and 20 mM EDTA was injected. The luminescence intensity was recorded at 0.1 s intervals for 10 s or 10 min. The maximum luminescence intensity (Imax), represented in relative luminescence units (rlu), was used in the study.
After measuring the luminescence intensities, the wells were washed three times with HENG buffer, and incubated with HRP-conjugated anti-FLAG antibody diluted with PBS containing […] and 2% fetal bovine serum at 37 °C for one hour. After extensive washing, […] Super Sensitive One Component HRP Microwell Substrate (SurModics, Eden Prairie, MN, USA) was added into the well and the reaction was stopped with sulfuric acid. Absorbance at 450 nm was measured with ARVO X5 (PerkinElmer). The relative amount of protein bound on the well was estimated from the absorbance.
In Supporting Figure S1a, the values of Imax are shown in kinetics plots. In Figs 2c,e, 3c, S1d, S3, and S4, the relative luminescence intensities are shown as the fold-change in the Imax values of the samples relative to Imax with EGFP. In Figs 4, 5a,c and 6c, the relative luminescence intensities were normalized to the amount of the bound 3xFLAG-DYRK1A mutant and calculated as the fold-change relative to the value at 0 μM of the compounds.
Small molecules in our original synthetic chemical library, including unpublished small molecule inhibitors of DYRK1A and its structural derivatives (data not shown), were added to the 96-well plates containing the transfected cells at a final concentration of 4 μM. The cells were then processed as described above.

[2] = biological target: DYRK1A (Homo sapiens, UniProt Q13627); test: In vitro kinase assay, substrate DYRKtide-F; assay type: biochemical; set-up: full-length human recombinant kinases were expressed using a baculovirus expression system as amino-terminal GST-fusion proteins; GST (N); purchased Carna Biosciences; host or cells: baculovirus expression system; settings: for inhibitory activity against recombinant DYRK1A: result in words, Fig. 6b
Excerpt: Detailed information on the assay conditions is available on the website of Carna Biosciences (http://www.carnabio.com/english/index.html; Kobe, Japan). In brief, full-length human recombinant kinases were expressed using a baculovirus expression system as amino-terminal GST-fusion proteins, and purified by glutathione-Sepharose chromatography. The GenBank accession numbers of DYRK1A, DYRK1B, DYRK2, and DYRK3 were NP_001387.2, NP_004705.1, NP_003574.1, and NP_003573.2. […] For each compound, a DMSO solution was diluted in assay buffer to yield a final concentration of 1% DMSO. After incubation for one hour at room temperature, substrate phosphorylation was analyzed by electrophoretic separation of the substrate and products using a Caliper LC3000 platform (Caliper Life Sciences, Mountain View, CA, USA). The phosphorylated product (P)/(P + substrate) ratio was calculated at each concentration of each small molecule and the percent inhibition was expressed relative to a control assay in the absence of the small molecule. […] The IC50 of each compound was calculated by interpolation on a log-concentration-response curve fitted with a four-parameter logistic equation.

[3] = biological target: T2, 3xFLAG-DYRK1A (Homo sapiens, UniProt Q13627); test: Western blot of 3xFLAG-DYRK1A level in transfected 293T cells; assay type: cell-based
T2 construct: F2A peptide linking to EGFP (2A skipping releases EGFP; a 2A remnant may stay on DYRK1A) (C); expressed in transfected cells; host or cells: 293T cells, transient
Protocol: To investigate whether DYRK1A is a client kinase of the CDC37/HSP90 system, we used a HSP90 inhibitor, ganetespib. 293T cells were transiently transfected with an expression vector of 3xFLAG-tagged DYRK1A (3xFLAG-DYRK1A). At 24 h after transfection, the cells were treated with ganetespib for the indicated time (0–8 h). Total cell lysates were collected and subjected to SDS-PAGE followed by Western blot analysis.
Figure 1 Ganetespib, a HSP90 inhibitor, decreases the DYRK1A protein level. 293T cells were transiently transfected with an expression vector for 3xFLAG-DYRK1A. At 24 h after transfection, the cells were treated with ganetespib (100 nM) and collected 0 and 8 h after treatment. Total cell lysates were subjected to SDS-PAGE followed by Western blot analysis using antibodies against FLAG and GAPDH. In the control group (DMSO), expression of 3xFLAG-DYRK1A increased at 8 h compared to 0 h, and ganetespib suppressed this increase of 3xFLAG-DYRK1A.
(§2) Western blot analysis was performed using the antibodies described above. In brief, total cell lysates were separated by SDS-PAGE (5–20% gels; ATTO, Tokyo, Japan) under reducing conditions and then transferred to a PVDF membrane (PALL, SP, Brazil). Antibody reactions were performed with Can Get Signal® Immunoreaction Enhancer Solution (Toyobo). Peroxidase activities on the membrane were visualized with ECL Western Blotting Detection Reagents (GE Healthcare) or ImmunoStar® LD (Wako Pure Chemical Industries, Osaka, Japan), and a ChemiDoc^TM MP Imaging System (Bio-Rad, Hercules, CA, USA).

[4] = system: CDC37-nanoKAZ; test: Luminescence activity of CDC37-nanoKAZ in total cell lysates; assay type: cell-based; settings: counter-test, same concentrations as interaction assay
Protocol: as §1
Targeting the DYRK1A/CDC37 complex
(a-d) Luminescence intensities of total cell lysates of cells treated with the indicated […]
Figure 4. Luminescence intensities at each concentration are shown as fold-changes relative to that at 0 nM. Points are means ± SD (n = 3).
(1 picture or pasted object on this page, not shown here)
Luminescence intensities of total cell lysates of cells treated with the indicated concentrations of CaNDY, as also used in Figure 5c. Luminescence intensities at each concentration are shown as fold-changes to that at 0 nM. Points are means ± SD (n = 3).

[5] = biological target: T3, endogenous DYRK1A (Homo sapiens, UniProt Q13627); test: Western blot of endogenous DYRK1A protein in HEK293 cells; assay type: cell-based; settings: ganetespib 100 nM, 4 days
T3 construct: endogenous in cells; host or cells: HEK293
Protocol: We investigated whether CaNDY destabilizes DYRK1A as ganetespib does. […] Next we examined whether CaNDY decreased endogenous DYRK1A protein. HEK293 cells were cultured for 0–4 days with CaNDY (2 μM) and then subjected to SDS-PAGE followed by Western blot analysis using antibodies against DYRK1A and GAPDH. […] The treated cells were also subjected to reverse transcription followed by quantitative PCR analysis.
as §2

**Q.** What does the source list for `O=C1NC(=S)S/C1=C\c1ccc2[nH]ccc2c1` [RD0440]?
**A.** antagonism of the CDC37-nanoKAZ interaction [1]: did not antagonize the interaction; inhibitory activity against recombinant DYRK1A [2]: weak inhibitory activity

**Q.** For `CC[C@H](C)[C@H](NC(=O)[C@H]([C@@H](C)CC)N(C)C(C)=O)C(=O)N[C@H](C(=O)N[C@@H](CC(C)C)C(=O)[C@@]1(C)CO1)[C@@H](C)O` [epoxomicin], which “effect on CaNDY-mediated degradation of 3xFLAG-DYRK1A” value ([3]; 2 µM epoxomicin pre-treatment 1 h, then CaNDY 2 µM 8 h) is on record?
**A.** partially prevented

**Q.** How did the “inhibition of luminescence activity of CDC37-nanoKAZ” value [4] turn out when `CCN1/C(=C/C(C)=O)Sc2ccc(O)cc21` [INDY] was run?
**A.** did not inhibit

**Q.** With `N=C1NC(=O)C(=Cc2ccc3c(c2)OCO3)S1` [PD0439] as the compound, how does the EC50 [1] read?
**A.** 573 nM

**Q.** What about the IC50 ([2]; 25 μM ATP, 1 μM DYRKtide-F, read-out: IC50, substrate phosphorylation) of the same compound?
**A.** 16.7 nM

**Q.** `COc1ccc2c(c1)[nH]c1c(C)nccc12` [harmine] was tested. Which “inhibition of luminescence activity of CDC37-nanoKAZ” value [4] did it give?
**A.** did not inhibit

**Q.** What does the source list for `CC(C)c1cc(-c2n[nH]c(=O)n2-c2ccc3c(ccn3C)c2)c(O)cc1O` [ganetespib, reference compound]?
**A.** EC50 [1]: 14 nM; accumulation of endogenous DYRK1A [5]: prevented it; inhibition of luminescence activity of CDC37-nanoKAZ [4]: did not inhibit; DYRK1A protein level ([3]; ganetespib 100 nM, 8 h, compared with DMSO): decreased the DYRK1A level

**Q.** How did the “antagonism of the CDC37-nanoKAZ interaction” value [1] turn out when `[H]/N=C1/NC(=O)C(=Cc2ccc3[nH]ccc3c2)S1` [PD0442] was run?
**A.** did not antagonize the interaction

**Q.** What about the “inhibitory activity against recombinant DYRK1A” value [2] of the same compound?
**A.** weak inhibitory activity
